Laboratory results from paper PMC5021751, “Discovery of DNA dyes Hoechst 34580 and 33342 as good candidates for inhibiting amyloid beta formation: in silico and in vitro study” (Journal of Computer-Aided Molecular Design, 2016).
Like-named read-outs stand apart in the source and are kept apart here.

Target: T1, Aβ42 (amyloid beta) (Homo sapiens, UniProt P05067)
T1 construct: gene APP
Experiment: Thioflavin T fibrillization assay with purified Aβ[…] peptide
Format: biochemical

T1 sequence (P05067 672-713 limits assumed): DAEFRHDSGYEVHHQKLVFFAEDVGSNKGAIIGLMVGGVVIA

SMILES	IC50 (read-out: IC50) [nM]	IC50 [nM]
CCOc1ccc(-c2nc3cc(-c4nc5cc(N6CCN(C)CC6)ccc5[nH]4)ccc3[nH]2)cc1 [Hoechst 33342]	680 ± 50	–
CN1CCN(c2ccc3[nH]c(-c4ccc5[nH]c(-c6ccc(N(C)C)cc6)nc5c4)nc3c2)CC1 [Hoechst 34580]	–	860 ± 50
